Test results published in PubChem BioAssay AID248 (DTP/NCI, 2004).
Several values for one entry are separate records, joined by “and”; a condition that tells them apart may be missing. Identical values can stand only once. Toxic doses and inconclusive results are not listed. Cut-off read from the data, not from the text of the source: active = T/C of 150% or more; inactive = T/C below 125%.

System: L1210 leukemia ip in BDF1 mice, survival T/C
Test: NCI In Vivo Anticancer Drug Screen. Data for tumor model L1210 Leukemia (intraperitoneal) in B6D2F1 (BDF1) mice
Settings: endpoint: mean survival time, higher = longer survival
Outline: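 Antitumor effect is assessed in tumor-bearing animals. Survival in the compound arm is compared with a vehicle-dosed control arm and expressed as their quotient.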

[1] = dose: 100.0 mg/kg/injection, schedule: Q04DX003 (ip), vehicle: Klucel (hydroxypropylcellulose) (HPC)
[2] = dose: 100.0 mg/kg/injection, schedule: Q01DX001 (ip), vehicle: Klucel (hydroxypropylcellulose) (HPC)
[3] = dose: 200.0 mg/kg/injection, schedule: Q01DX001 (ip), vehicle: Klucel (hydroxypropylcellulose) (HPC)
[4] = dose: 400.0 mg/kg/injection, schedule: Q01DX001 (ip), vehicle: Klucel (hydroxypropylcellulose) (HPC)
[5] = dose: 200.0 mg/kg/injection, schedule: Q01DX009 (ip), vehicle: Klucel (hydroxypropylcellulose) (HPC)
[6] = dose: 200.0 mg/kg/injection, schedule: Q04DX003 (ip), vehicle: Klucel (hydroxypropylcellulose) (HPC)
[7] = dose: 400.0 mg/kg/injection, schedule: Q01DX009 (ip), vehicle: Klucel (hydroxypropylcellulose) (HPC)
[8] = dose: 400.0 mg/kg/injection, schedule: Q04DX003 (ip), vehicle: Klucel (hydroxypropylcellulose) (HPC)
[9] = dose: 100.0 mg/kg/injection, schedule: Q01DX009 (ip), vehicle: Klucel (hydroxypropylcellulose) (HPC)
[10] = dose: 100.0 mg/kg/injection, schedule: Q04DX003 (ip), vehicle: saline with Tween-80
[11] = dose: 200.0 mg/kg/injection, schedule: Q04DX003 (ip), vehicle: saline with Tween-80
[12] = dose: 50.0 mg/kg/injection, schedule: Q01DX001 (ip), vehicle: carboxymethylcellulose (CMC)
[13] = dose: 100.0 mg/kg/injection, schedule: Q01DX001 (ip), vehicle: carboxymethylcellulose (CMC)
[14] = dose: 200.0 mg/kg/injection, schedule: Q01DX001 (ip), vehicle: carboxymethylcellulose (CMC)
[15] = dose: 400.0 mg/kg/injection, schedule: Q01DX001 (ip), vehicle: carboxymethylcellulose (CMC)
[16] = dose: 100.0 mg/kg/injection, schedule: Q01DX001 (ip), vehicle: saline
[17] = dose: 12.5 mg/kg/injection, schedule: Q01DX009 (ip), vehicle: Klucel (hydroxypropylcellulose) (HPC)
[18] = dose: 25.0 mg/kg/injection, schedule: Q01DX009 (ip), vehicle: Klucel (hydroxypropylcellulose) (HPC)

Measured: T/C

CCN1/C(=C/C=C/C=C/c2sc3ccccc3[n+]2CC)Sc2ccccc21
inactive: dose: 0.04 mg/kg/injection, schedule: Q01DX009 (ip), vehicle: saline 110 % of control | dose: 0.08 mg/kg/injection, schedule: Q01DX009 (ip), vehicle: saline 93 % of control | dose: 0.09 mg/kg/injection, schedule: Q01DX009 (ip), vehicle: saline 117 % of control | dose: 0.09 mg/kg/injection, schedule: Q04DX003 (ip), vehicle: saline 102 % of control | dose: 0.19 mg/kg/injection, schedule: Q01DX009 (ip), vehicle: saline 122 % of control | dose: 0.19 mg/kg/injection, schedule: Q04DX002 (ip), vehicle: saline 102 % of control | dose: 0.19 mg/kg/injection, schedule: Q04DX003 (ip), vehicle: saline 102 % of control | dose: 0.32 mg/kg/injection, schedule: Q01DX009 (ip), vehicle: saline 88 % of control | dose: 0.37 mg/kg/injection, schedule: Q01DX001 (ip), vehicle: saline 95 % of control | dose: 0.38 mg/kg/injection, schedule: Q01DX009 (ip), vehicle: saline 96 % of control | dose: 0.38 mg/kg/injection, schedule: Q04DX002 (ip), vehicle: saline 103 % of control | dose: 0.38 mg/kg/injection, schedule: Q04DX003 (ip), vehicle: saline 105 % of control | dose: 0.39 mg/kg/injection, schedule: Q01DX009 (ip), vehicle: saline 109 % of control | dose: 0.62 mg/kg/injection, schedule: Q01DX001 (ip), vehicle: other 105 % of control | dose: 0.75 mg/kg/injection, schedule: Q01DX001 (ip), vehicle: saline 102 % of control | dose: 0.76 mg/kg/injection, schedule: Q04DX002 (ip), vehicle: saline 107 % of control | dose: 0.76 mg/kg/injection, schedule: Q04DX003 (ip), vehicle: saline 103 % of control | dose: 0.8 mg/kg/injection, schedule: Q01DX001 (ip), vehicle: saline 105 % of control | dose: 1.25 mg/kg/injection, schedule: Q01DX001 (ip), vehicle: other 110 % of control | dose: 1.5 mg/kg/injection, schedule: Q01DX001 (ip), vehicle: saline 105 % of control | dose: 1.5 mg/kg/injection, schedule: Q04DX002 (ip), vehicle: saline 110 % of control | dose: 2.5 mg/kg/injection, schedule: Q01DX001 (ip), vehicle: other 115 % of control | dose: 3.0 mg/kg/injection, schedule: Q01DX001 (ip), vehicle: saline 110 % of control | dose: 5.0 mg/kg/injection, schedule: Q01DX001 (ip), vehicle: other 107 % of control

Nc1ccc(OCCNS(=O)(=O)c2ccc(S(=O)(=O)F)cc2)c(Cl)c1
inactive: dose: 25.0 mg/kg/injection, schedule: Q04DX003 (ip), vehicle: Klucel (hydroxypropylcellulose) (HPC) 97 % of control | dose: 50.0 mg/kg/injection, schedule: Q01DX001 (ip), vehicle: saline with Tween-80 91 % of control | dose: 50.0 mg/kg/injection, schedule: Q04DX003 (ip), vehicle: Klucel (hydroxypropylcellulose) (HPC) 97 % of control | dose: 100.0 mg/kg/injection, schedule: Q01DX001 (ip), vehicle: saline with Tween-80 92 % of control | [1] 99 % of control and 105 % of control | dose: 200.0 mg/kg/injection, schedule: Q01DX001 (ip), vehicle: saline with Tween-80 100 % of control

CC1(C)CCCC2(C)C(=O)C3CCC2C31 (centres undefined)
inactive: [2] 98 % of control | [3] 91 % of control | [4] 91 % of control

COC(=O)C(C(=O)Oc1ccc([N+](=O)[O-])cc1)c1ccccc1 (centres undefined)
inactive: [2] 97 % of control | [1] 101 % of control | [3] 97 % of control | [5] 102 % of control | [6] 103 % of control | [4] 100 % of control | [7] 109 % of control | [8] 101 % of control

Cc1cc(C(C)(C)C)cc(C)c1O
inactive: [9] 97 % of control | [1] 95 % of control | [5] 100 % of control | [6] 95 % of control | [7] 97 % of control | [8] 95 % of control

COc1ccc(OCC(O)CN2CCN(c3ccc(Cl)cc3)CC2)cc1 (centres undefined)
inactive: [10] 93 % of control | [11] 90 % of control | dose: 400.0 mg/kg/injection, schedule: Q04DX003 (ip), vehicle: saline with Tween-80 98 % of control

CCOC(=O)C(C(=O)OCC)C(CC(=O)C1CC1)c1ccccc1 (centres undefined)
inactive: [12] 92 % of control | [13] 95 % of control | dose: 100.0 mg/kg/injection, schedule: Q04DX002 (ip), vehicle: Klucel (hydroxypropylcellulose) (HPC) 97 % of control | [14] 92 % of control | dose: 200.0 mg/kg/injection, schedule: Q04DX002 (ip), vehicle: Klucel (hydroxypropylcellulose) (HPC) 101 % of control | [15] 95 % of control | dose: 400.0 mg/kg/injection, schedule: Q04DX002 (ip), vehicle: Klucel (hydroxypropylcellulose) (HPC) 111 % of control

Cc1csc[n+]1Cc1ccc([N+](=O)[O-])cc1
inactive: dose: 5.0 mg/kg/injection, schedule: Q01DX001 (ip), vehicle: saline 100 % of control | dose: 10.0 mg/kg/injection, schedule: Q01DX001 (ip), vehicle: saline 102 % of control | dose: 20.0 mg/kg/injection, schedule: Q01DX001 (ip), vehicle: saline 102 % of control | dose: 40.0 mg/kg/injection, schedule: Q01DX001 (ip), vehicle: saline 103 % of control | dose: 80.0 mg/kg/injection, schedule: Q01DX001 (ip), vehicle: saline 100 % of control | [16] 98 % of control

CN(C)c1ccc(O)c2c1CC1CC3C(N(C)C)C(=O)C(C(N)=O)=C(O)C3(O)C(=O)C1=C2O (centres undefined)
inactive: [10] 100 % of control | [11] 108 % of control

CSc1nc(N)n(C)n1
inactive: dose: 100.0 mg/kg/injection, schedule: Q04DX002 (ip), vehicle: saline 123 % of control | dose: 200.0 mg/kg/injection, schedule: Q04DX002 (ip), vehicle: saline 104 % of control | dose: 400.0 mg/kg/injection, schedule: Q04DX002 (ip), vehicle: saline 93 % of control

CCN(CC)CC(N)=O
inactive: dose: 100.0 mg/kg/injection, schedule: Q04DX003 (ip), vehicle: saline 103 % of control | dose: 200.0 mg/kg/injection, schedule: Q04DX003 (ip), vehicle: saline 103 % of control | dose: 400.0 mg/kg/injection, schedule: Q04DX003 (ip), vehicle: saline 111 % of control

CC(C)C(=O)NNCc1ccccc1
inactive: [17] 106 % of control | [18] 104 % of control | dose: 50.0 mg/kg/injection, schedule: Q01DX009 (ip), vehicle: Klucel (hydroxypropylcellulose) (HPC) 97 % of control | [9] 92 % of control

OCC(O)C(O)/C=N/N(Cc1ccccc1)c1ccccc1 (centres undefined)
inactive: [12] 103 % of control | [13] 101 % of control | [14] 101 % of control | [15] 97 % of control

CN(C)C1=C(Cl)C(=O)c2ccccc2C1=O
inactive: dose: 50.0 mg/kg/injection, schedule: Q01DX001 (ip), vehicle: saline 102 % of control | [16] 100 % of control

CCOC(=O)/C(C#N)=C(/C)C1CC1
inactive: dose: 6.25 mg/kg/injection, schedule: Q01DX009 (ip), vehicle: Klucel (hydroxypropylcellulose) (HPC) 95 % of control | [17] 105 % of control | [18] 97 % of control | dose: 75.0 mg/kg/injection, schedule: Q01DX001 (ip), vehicle: carboxymethylcellulose (CMC) 95 % of control | dose: 150.0 mg/kg/injection, schedule: Q01DX001 (ip), vehicle: carboxymethylcellulose (CMC) 105 % of control

O=[N+]([O-])c1ccccc1/C=C/C=N/N=C/c1ccccc1O
inactive: dose: 75.0 mg/kg/injection, schedule: Q01DX001 (ip), vehicle: other 94 % of control | dose: 150.0 mg/kg/injection, schedule: Q01DX001 (ip), vehicle: other 95 % of control | dose: 300.0 mg/kg/injection, schedule: Q01DX001 (ip), vehicle: other 88 % of control
